Measurements as given in article PMC7902338 (Pharmaceutical Research, 2021).
Like-named read-outs stand apart in the source and are kept apart here.

What was measured:
[1] = mean ± SD
Protocol: Blood was centrifuged to obtain plasma, the liver and the kidneys were removed and urine was collected. Proteins were precipitated by the addition of acetonitrile (1 μL/μL plasma; 1000 μL for the liver, 200 μL for the kidneys and 0.5 μL/μL urine). All solutions were vortexed and centrifuged. […] Detection was performed by placing the TLC plates on multisensitive phosphor screens (PerkinElmer Life Sciences, Waltham, MA). The screens were scanned at 300 dpi resolution using a PerkinElmer Cyclone® Plus Phosphor Imager (Perkin-Elmer Life Sciences).
(§1) PET imaging was performed under isoflurane/air anesthesia and animals were warmed throughout the experiment while constantly monitoring body temperature and respiratory rate. A microPET Focus220 scanner (Siemens Medical Solutions, Knoxville, TN, USA) was used for PET imaging. […] List mode data were acquired with a timing window of 6 ns and an energy window of 250–750 keV. At the end of the PET scans, blood was collected from the retro-bulbar plexus and animals were killed by cervical dislocation. Blood was centrifuged to obtain plasma and aliquots of blood and plasma were counted for radioactivity in a gamma counter.

[2] = system: cation transporters (OCTs, MATEs); test: [^11C]Metoclopramide PET in C57BL/6 wild-type mice without and with unlabeled metoclopramide, cimetidine or sulpiride
Protocol: as §1
Using the medical image data examiner software AMIDE ([33]), the left ventricle of the heart (image-derived arterial blood curve), brain, liver, left kidney and urinary bladder were manually outlined as regions of interest on the PET images, guided by representative magnetic resonance images obtained for a few animals on a 1-T benchtop MR scanner (ICON; Bruker BioSpin GmbH), to derive concentration-time curves expressed in units of percent injected dose per mL (%ID/mL).
The area under the concentration-time curves (AUC, %ID/mL x min) was calculated for each region of interest using Prism 8 Software (GraphPad, La Jolla, CA, USA). […] VE is the y-intercept of the integration plot. CLint,urine was obtained by performing linear regression analysis of a plot of Xint,urine versus AUC0-t,kidney and calculating the slope of the regression line.
The plasma concentration was obtained by multiplying the concentration in the left ventricle of the heart by the plasma/blood radioactivity ratio, determined from the blood sample collected at the end of the PET scan.

[3] = cited from earlier work
CYP2D6 [4] = settings: cimetidine ref 39; metoclopramide ref 10, 11; cited from earlier work
CYP2D6 [5] = system: CYP2D6; parameters: method as in PMID 21740075; settings: orally administered, humans, estimated; cited from earlier work
human OCT1 = settings: cited from earlier work
[6] = system: human P-glycoprotein (P-gp/ABCB1); settings: cited from earlier work
[7] = single oral or intravenous dose; cited from earlier work
mouse MATEs = settings: read-out: inhibition constant Ki; cited from earlier work
mouse OCTs = settings: read-out: inhibition constant Ki; cited from earlier work
[8] = C57BL/6 female mice, baseline, 15 min after radiotracer injection
[9] = C57BL/6 female mice, cimetidine (150 mg/kg), 15 min
[10] = FVB male/female Slc22a1/2^(−/−) mice, 15 min
[11] = FVB male/female wild-type mice, 15 min
[12] = integration plot 0.4 to 4 min, range over baseline and treatment groups, C57BL/6 mice

With `CCN(CC)CCNC(=O)c1cc(Cl)c(N)cc1O[11CH3]` [[^11C]metoclopramide] as the molecule, how does the “Percentage of unchanged [^11C]metoclopramide in kidney” value (shortened to “Percentage of unchanged … in kidney”) [1, 8] read?
The value was 64 ± 6%.

And the “Percentage of unchanged [^11C]metoclopramide in urine” value (shortened to “Percentage of unchanged … in urine”) [1, 8]?
The value was 29 ± 4%.

And the “Percentage of unchanged … in kidney” value [1, 9]?
Its value is 96 ± 2 %.

What about the “Percentage of unchanged … in urine” value [1, 9] of the same molecule?
The value was 87 ± 4 %.

And the “Percentage of unchanged … in kidney” value ([1]; C57BL/6 female mice, co-administration of unlabeled metoclopramide (5 mg/kg), 15 min)?
Its value is 74 ± 4%.

And the “Percentage of unchanged … in urine” value ([1]; C57BL/6 female mice, sulpiride (25 mg/kg), 15 min)?
The value was 36 ± 5%.

And the “Percentage of unchanged … in kidney” value [1, 10]?
The value was 72 ± 8%.

What about the “Percentage of unchanged … in urine” value [1, 10] of the same molecule?
Its value is 48 ± 10%.

And the “Percentage of unchanged … in kidney” value [1, 11]?
Its value is 70 ± 20%.

And the “Percentage of unchanged … in urine” value [1, 11]?
The value was 64 ± 22%.

What about the “Maximum amount of radioactivity in the kidneys” value ([2]; C57BL/6 wild-type mice, assuming average mouse organ volumes from literature) of the same molecule?
The value was “approximately 17 % of the injected dose”.

And the “Time to maximum concentration of radioactivity in the kidneys and liver” value ([2]; C57BL/6 wild-type mice, i.v. microdose)?
The value was ≤ 5 min.

What about the “Amount of radioactivity excreted into the urinary bladder” value ([2]; end of the 90-min PET scan) of the same molecule?
The value was “approximately 45 % of the injected dose”.

What about the “kuptake,kidney (rate constant for uptake of total radioactivity from blood into the kidneys)” value [2, 12] of the same molecule?
Its value is 0.5–1 mL/min/mL kidney.

And the “kuptake,liver (rate constant for uptake of total radioactivity from blood into the liver)” value [2, 12]?
The value was 0.2–0.6 mL/min/mL liver.

What about the “Decrease of urinary excretion” value ([2]; the different investigated treatments vs baseline, wild-type mice) of the same molecule?
The value was “up to 3.8 fold”.

For `CCN(CC)CCNC(=O)c1cc(Cl)c(N)cc1OC` [metoclopramide], which pKa [3] is on record?
The pKa was 9.71.

What about the “Fraction in protonated form” value ([3]; physiological pH) of the same molecule?
Its value is “more than 99%”.

And the CYP2D6 inhibition (CYP2D6 [4])?
Its CYP2D6 inhibition is “potent inhibitor”.

What about the “Share of total clearance accounted for by CYP2D6 metabolism” value (CYP2D6 [5]) of the same molecule?
Its value is 44%.

And the “Share of cellular uptake related to OCT1 activity” value (human OCT1; human OCT1 transfected cell line)?
Its value is 45%.

What about the “Substrate of human OCT1” value (human OCT1; in vitro) of the same molecule?
The value was “substrate”.

And the “Substrate of human P-gp” value [6]?
Its value is “weak substrate”.

What about the “Fraction of dose excreted unchanged in urine” value [7] of the same molecule?
Its value is “Approximately 20%”.

Which results are given for `CN/C(=N/CCSCc1nc[nH]c1C)NC#N` [cimetidine]?
CYP2D6 inhibition (CYP2D6 [4]): potent; Ki (mouse MATEs): 1 to 4 µM; Ki (mouse OCTs): 54 to 143 µM
